From ChEMBL document CHEMBL1128656, “5,6,7,8-Tetrahydroquinolones as antagonists at the glycine site of the NMDA receptor” (Bioorg Med Chem Lett, 1995)
One block for each molecule: values may come before it. Calls of active or inactive are those of the source. No cut-off for these calls is given here.

What was measured:
[1] = biological target: Glutamate receptor ionotropic, NMDA 1 (Rattus norvegicus, UniProt P35439); assay: Compound was evaluated for its ability to displace [3H]-L-689,560 from rat cortical membrane
[2] = organism: Mus musculus; assay: Effective dose required to protect against audiogenic seizure in DBA/2 mice; type: functional
[3] = tested on: Mus musculus; assay: Effective dose required to protect against audiogenic seizure in DBA/2 mice at 10 mg/kg; number protected / number tested is 1/8; type: functional, organism-based; parameters: dose 10 mg/kg
[4] = biological target: Glutamate receptor ionotropic, NMDA 1 (Rattus norvegicus) (UniProt P35439); assay: Ability of compound to antagonize NMDA induced responses in rat cortical slice; type: functional
[5] = tested on: Mus musculus; assay: Effective dose required to protect against audiogenic seizure in DBA/2 mice at 10 mg/kg; number protected / number tested is 4/8; type: functional, organism-based; parameters: dose 10 mg/kg
[6] = tested on: Mus musculus; assay: Effective dose required to protect against audiogenic seizure in DBA/2 mice at 20 mg/kg; number protected / number tested is 8/8; type: functional, organism-based; parameters: dose 20 mg/kg

Structure (SMILES): Cc1[nH]c(=O)c(-c2ccccc2)c(O)c1C
IC50 [1]: > 100 µM

Structure (SMILES): O=c1[nH]c2cc(Cl)ccc2c(O)c1-c1cccc(Oc2ccccc2)c1
ED50 [2]: 0.88 mg/kg

Structure (SMILES): Cc1ccc2c(O)c(-c3cccc(Oc4ccccc4)c3)c(O)nc2c1
ED50 [5]: Weak activity

Structure (SMILES): O=c1[nH]c2cc(Cl)ccc2c(O)c1-c1ccccc1
ED50 [2]: 4.5 mg/kg

Structure (SMILES): CC1CCc2c([nH]c(=O)c(-c3cccc(Oc4ccccc4)c3)c2O)C1 (stereo not drawn)
IC50 [1]: 0.057 µM

Structure (SMILES): Cc1ccc2c(O)c(-c3cccc(Oc4ccccc4)c3)c(=O)[nH]c2c1
IC50 [1]: 0.02 µM

Continued, in another order:

IC50 [1]: ~100 µM
Structure (SMILES): CCCc1nc(O)c(-c2ccccc2)c(O)c1C

IC50 [1]: 3.5 µM
Structure (SMILES): CC1CCc2c([nH]c(=O)c(-c3ccccc3)c2O)C1 (stereo not drawn)

Kb [4]: 0.35 µM
Structure (SMILES): CC1CCc2c(nc(O)c(-c3cccc(Oc4ccccc4)c3)c2O)C1 (stereo not drawn)
ED50 [3]: inactive

Kb [4]: 3.7 µM
Structure (SMILES): CC1CCc2c(nc(O)c(-c3ccccc3)c2O)C1 (stereo not drawn)
ED50 [3]: inactive
ED50 [6]: Active
